# Source: patent US4024256A, “Method and composition for treating urinary tract infections” (priority 1975, dated 1977)
# Values joined by “and” are separate entries in the source; they are usually repeats but may differ in a detail not shown here. Equal values may be shown once. “Also recorded” adds a separate entry of the source. Read-outs that look alike come from different tables or passages of the source.
# Legend:
# [1] = test system: Proteus; assay: static-dynamic system, bacteriostasis against Proteus, statements over all experiments; type: cell-based, Proteus mirabilis, Proteus rettgeri, Proteus morgani
# Protocol: In this example in vitro investigations were carried out using a static-dynamic system delineating (1) bacteriostatic dose-response relation for methenamine against Proteus, and (2) a synergistic bacteriostatic dose-response relation for methenamine and acetohydroxamic acid against Proteus. […] The tubes were placed in a bacteriological incubator at 37° C. […] Incubation of the tubes at 37° and sequential dilutions were made a 6 hour intervals for 24 hours. The variables for each of eight experiments are detailed in Table 2. Bacterial colony forming units (cfu) and urine pH were determined at the beginning and at the completion of each six hour incubation. The cfu units present after six hours of incubation are graphed in FIGS. 4-15. […] When bacteriostatis was absent, the number of cfu after six hours of incubation was equal to or greater than the number of cfu at the beginning of incubation. A strain of Proteus mirabilis isolated from the urine of patients with urinary tract infections was used in most experiments. Overnight growth in brain heart infusion (BHI) broth regularly produced 10^9 cfu/ml. The overnight culture was centrifuged at 3000 rpm for 20 minutes. The supernatant was discharged, and the bacterial pellet was resuspended in an equal volume of synthetic urine. […]
# [2] = test system: bacterial urease; settings: cited from earlier work
# [3] = test system: Proteus mirabilis; assay: Proteus mirabilis infected bladder stones (zinc disc) in rats; type: in vivo, male Sprague-Dawley rats
# Protocol: This example was carried out to illustrate the effectiveness of administering a source of hydroxamate groups, e.g., acetohydroxamic acid in eliminating the pathogenicity of urinary tract infections and in dissolving or reducing infected bladder stones.
# The formation of infected bladder stones was induced in 250 gram male Sprague-Dawley rats, according to the method described in "Experimental Urolithiasis VIII -- Furadantin in Treatment of Experimental Proteus Infection with Stone Formation" C. W. Vermuelen and R. Goetz, Journal of Urology, 72:99, 1954. Rats wer anesthetized with ether and the abdominal wall swabbed with 70% ethyl alcohol. The urinary bladder was entered through a small suprapubic incision. Zinc discs, 6 mm. in diameter, were dipped into a saline suspension containing 10^7 Proteus mirabilis per ml (infective discs) and immediately inserted into the bladder. Discs handled in this fashion carried 10^5 ± 15% organisms. The bladder was closed with a single purse-string suture of 3-0 chromic catgut, and the skin was approximated with metallic clips. All animals were fasted overnight following the surgical procedure and resumed their usual diet the following day.
# Rats were housed individually in stainless steel metabolic cages and were fed Purina Rat Chow pellets ad lib. Fluid was given in stainless steel cups as a solution of 5-20% sucrose in water.
# [4] = test system: Proteus mirabilis; assay: dynamic model of the urinary tract (FIGS. 16, 17); type: cell-based
# Protocol: This example was carried out using a dynamic model as described in connection with Example 2. […] Proteus species, isolated from the urine of patients with known urinary infection, were maintained in the laboratory by monthly transfer on agar […]. These organisms grew to about 10^9 colony forming units (cfu) per ml after overnight growth at 37° C in brain heart infusion broth (BHI). […] The pH of this synthetic urine was 5.85. […] In this dynamic system urine with or without acetohydroxamic acid was pumped at 48 ml/hr from reservoirs via an auto-analyzer pump into reaction chambers which were incubated in a shaking water bath at 37° C. […] Every six hours the reaction chambers were emptied except for a 5 ml residual, and the sequence was repeated. In these experiments the pH, ammonia concentration and cfu per ml urine were determined for each reaction chamber at the end of each six hour period.
# [5] = test system: Proteus rettgeri; assay: static study in synthetic urine: viable bacteria, Proteus rettgeri (FIG. 2); type: cell-based
# Protocol: (§1) Static studies were conducted to illustrate the synergistic effect achieved in accordance with the present invention through the combined employment of a source of methenamine, i.e., methenamine itself and a source of hydroxamate groups, i.e., acetohydroxamic acid. In order to achieve reproducibility of results with large quantities or urine required for these studies a synthetic urine was formulated based on the proportion of solutes found in the urine from normal human subjects. The composition of such urine was as follows: Brain heart infusion (BHI) broth in a final concentration of 5% was added to support bacterial growth. The pH of the synthetic urine prior to addition of the BHI broth was 5.7 - 5.8. […] In these tests the methenamine was utilized in a final concentration of 0.9 milligrams per milliliter. […] Dally and […], 1969, Analytical BioChem 28:13-21. […] These concentrations which were selected in the static studies were concentrations which would be achievable in the urine of patients with normal renal function. […] At each pH level a set of four tubes was obtained, with these tubes being as follows: 1. Urine alone (control); 2. Urine plus methenamine; 3. Urine plus acetohydroxamic acid; and 4. Urine plus acetohyroxamic acid plus methenamine. […] At varying time intervals aliquots were removed for pH determination and bacterial enumeration by serial tenfold dilution.
# [6] = test system: Proteus species; assay: static study in synthetic urine: inhibition of alkalinization by Proteus species; type: cell-based; settings: for effect on alkalinization: methenamine 0.9 mg/ml
# Protocol: as §1
# [7] = characteristics of acetohydroxamic acid (Table 1), pKa; type: physicochemical
# Description: These aliphatic hydroxamic acids including formohydroxamic acid, acetohydroxamic acid, propionohydroxamic acid and isobutyhydroxamic acid. […] This source of hydroxamate groups has the following characteristics: […]
# [8] = test system: Proteus species; assay: static study in synthetic urine: anti-bacterial effect, all Proteus species studied; type: cell-based; settings: general statement
# Protocol: as §1
# [9] = test system: Proteus rettgeri; assay: dynamic study resembling a Proteus infected human bladder (FIG. 3); type: cell-based
# Protocol: Dynamic studies were conducted to further illustrate the synergistic effect associated with the combined presence of a source of methenamine, i.e., methenamine itself and a source of hyroxamate groups, i.e., acetohydroxamic acid in the urine. […] Utilizing a multicassetts roller pump, urine of a pH of 5.85 was pumped at 40 milliliters per hour from three reservoir flasks into three reaction chambers. […] An aqueous solution of 18 milligrams per milliliter of methenamine at a pH of 7.5 was pumped into reaction chambers 1 and 3 at a rate of two milliliters per hour yielding a final concentration of methenamine of 0.9 milligrams per milliliter. […] The reaction chambers contained gently rotating magnetic stirrers and were kept in a warm bath at 37° C. […] At 4 - 6 hour intervals the volume of urine in each reaction chamber was recorded, the pH of each reaction chamber was determined and serial dilutions were carried out for bacterial enumeration.
# [10] = test system: urease producing bacteria; settings: cited from earlier work
# [11] = test system: Proteus; assay: preliminary investigations in the dynamic system; type: cell-based; settings: methenamine 0.9 mg/ml
# Description: Utilizing a multicassetts roller pump, urine of a pH of 5.85 was pumped at 40 milliliters per hour from three reservoir flasks into three reaction chambers. […] An aqueous solution of 18 milligrams per milliliter of methenamine at a pH of 7.5 was pumped into reaction chambers 1 and 3 at a rate of two milliliters per hour yielding a final concentration of methenamine of 0.9 milligrams per milliliter. […] The reaction chambers contained gently rotating magnetic stirrers and were kept in a warm bath at 37° C.
# [12] = test system: Proteus mirabilis; assay: static-dynamic system, bacteriostasis against Proteus mirabilis (Experiments A-J); type: cell-based
# Protocol: In this example in vitro investigations were carried out using a static-dynamic system delineating (1) bacteriostatic dose-response relation for methenamine against Proteus, and (2) a synergistic bacteriostatic dose-response relation for methenamine and acetohydroxamic acid against Proteus. […] The tubes were placed in a bacteriological incubator at 37° C. […] Incubation of the tubes at 37° and sequential dilutions were made a 6 hour intervals for 24 hours. The variables for each of eight experiments are detailed in Table 2. Bacterial colony forming units (cfu) and urine pH were determined at the beginning and at the completion of each six hour incubation. The cfu units present after six hours of incubation are graphed in FIGS. 4-15. […] When bacteriostatis was absent, the number of cfu after six hours of incubation was equal to or greater than the number of cfu at the beginning of incubation. A strain of Proteus mirabilis isolated from the urine of patients with urinary tract infections was used in most experiments. Overnight growth in brain heart infusion (BHI) broth regularly produced 10^9 cfu/ml. The overnight culture was centrifuged at 3000 rpm for 20 minutes. The supernatant was discharged, and the bacterial pellet was resuspended in an equal volume of synthetic urine. The bacteria were resuspended in synthetic urine to prevent differences in pH as the bacteria were inoculated into tubes of synthetic urine. […] The results are illustrated in FIGS. 4-15 which relates respectively to Experiment A-L of Table 2. Each of FIGS. 4-15 represents colony forming units (cfu) present at the completion of six hour incubations. 100-fold dilutions were made prior to initiating subsequent six hour incubations. Each figure also includes a line representative of theoretically perfect bacteriostasis.
# [13] = cited from earlier work
# [14] = individual animal, average of day individual values, listed as AHA
# [15] = individual animal, listed as AHA
smiles,measurement,setting,value
CC(=O)NO [acetohydroxamic acid],bacteriostatic effect,[1]; acetohydroxamic acid ≤0.9 mg/ml,no bacteriostatic effect
same,urease inhibiting effect,[2],appear to possess the greatest urease inhibiting effect
same,urine pH (group),[3]; acetohydroxamic acid treated animals,remained in the normal range; also recorded: in the physiological range
same,gross evidence of pyelonephritis or renal stone formation (group),[3]; autopsy,none had gross evidence of pyelonephritis or renal stone formation
same,kidney histology (group),[3]; autopsy,nearly all had normal kidneys histologically
same,Autopsy Gross Kidney,[3]; individual animal,Normal
same,Autopsy Urine bacteria/ml,[3]; individual animal,> 10^5 bacteria/ml
same,survival of animal,[3]; individual animal,Expired
same,Urine pH,[3]; [14],7.4 and 6.6 and 6.7 and 7.0 and 6.3 and 6.5 and 6.4
same,Autopsy Microscopic Kidney,[3]; [15],Pyelonephritis; also recorded: Normal
same,Autopsy Stone Composition,[3]; [15],Struvite; also recorded: Apatite
same,Autopsy Stone wt.,[3]; [15],12 mg and 4 mg and 21 mg and 11 mg and 1 mg and 19 mg and 3 mg and 7 mg
same,tissue damage and virulence of the disease,[3]; infected rats,tissue damage and virulence of the disease decreased
same,"P, difference in mean urine pH between control and treated groups","[3]; rat, in vivo",< 0.01
same,"P, difference in stone formation between control and treated groups","[3]; rat, in vivo",< 0.01
same,Proteus mirabilis in urine at autopsy (group),[3]; seventh day,greater than 10^5 per ml
same,bladder stone formation (group),[3]; seventh day,minimal; also recorded: significantly less bladder stone formation than the control rats
same,effect on pH,[4]; acetohydroxamic acid 1 mg/ml without methenamine,maintained the pH at normal levels
same,bacterial growth,"[4]; acetohydroxamic acid, higher concentration 1.0 mg/ml (FIG. 16)",slightly inhibited bacterial growth
same,bacteriostatic effect,[5]; acetohydroxamic acid 1.9 mg/ml,slight bacteriostatic effect
same,number of bacteria,"[5]; acetohydroxamic acid 1.9 mg/ml, within eight to eighteen hours",~10^8 per milliliter
same,inhibition of alkalinization,"[6]; acetohydroxamic acid 1.9 mg/ml, synthetic urine, 37°",inhibited alkalinizaton for the first eight hours
same,time within which effect as urease inhibitor was overcome,"[6]; acetohydroxamic acid 1.9 mg/ml, bacterial proliferation leading to alkaline pH",≤ 24 h
same,pKa,[7],9.32
same,anti-bacterial effect with regard to bacteria of the species Proteus,[8],slight anti-bacterial effect
same,alkalinization,[9]; acetohydroxamic acid 1.9 mg/ml,alkalinization of Proteus was inhibited
same,bacteriostatic effect,[9]; acetohydroxamic acid 1.9 mg/ml,minor bacteriostatic effect
same,"concentration of acetohydroxamic acid in urine, mean","150 mg offered daily orally, average 100 mg ingested",2880 µg/mL
same,Urine Acetohy.,[14],.3 mg/mL and 1.5 mg/mL and 2.5 mg/mL and 1.3 mg/mL and .9 mg/mL and 1.6 mg/mL and .5 mg/mL
O=CNO [formohydroxamic acid],urease inhibiting effect,[2],appear to possess the greatest urease inhibiting effect
CC(C)C(=O)NO [isobutyhydroxamic acid],urease inhibiting effect,[2],appear to possess the greatest urease inhibiting effect
C1N2CN3CN1CN(C2)C3 [methenamine mandelate],effect on overcoming the alkalinization of the urine,[10]; urinary infections produced by urease producing bacteria,no real effect on overcoming the alkalinization of the urine
"C1N2CN3CN1CN(C2)C3 [methenamine, hexamethenamine tetramine]",bacteriostasis,"[1]; methenamine 0.1 mg/ml, acidic urine, 10^4 - 10^7 per ml",bacteriostasis
same,effect on pH,[4]; lower concentrations of methenamine,the pH rapidly became alkaline and remained so throughout
same,bacterial growth,[4]; methenamine alone 0.5 mg/ml (FIG. 16),slightly inhibited bacterial growth
same,effect on pH,"[4]; methenamine alone, 0.5 mg/ml",initial tendency for the pH to neutralize in the presence of methenamine alone was overcome by the end of 18-24 hours
same,"anti-bacterial effect, dependence on initial pH",[5]; methenamine 0.9 mg/ml,proportional to the initial pH
same,effect on alkalinization,[6]; between pH 5.3 and 6.5,alkalinization was inhibited in proportion to the initial urine acidity
same,effect on alkalinization,[6]; initial pH less than 5.3,only a slight upward drift was observed
same,effect on alkalinization,[6]; pH greater than 6.5,did not alter progressive alkalinization
same,growth of Proteus and alkalinization of urine versus synthetic urine alone,[11],affected growth of Proteus and alkalinization of urine only slightly
same,bacteriostatic effect in alkaline urine versus acidic urine,"[12]; alkaline urine (FIGS. 12 and 13; experiments I, J)",much less bacteriostatic in alkaline urine
same,bacteriostatic activity,"[12]; methenamine 0.05 mg/ml, pH 5.9, 10^4 /ml and 10^5 /ml (Experiments A, B)",some bacteriostatic activity; also recorded: mild bacteriostatic effect
same,bacteriostasis,"[12]; methenamine 0.05 mg/ml, ≥10^6 /ml Proteus (Experiments C through H)",no bacteriostasis
same,bacteriostatic activity,"[12]; methenamine 0.05 mg/ml, ≥ 10^6 Proteus/ml (FIGS. 4-7)",little or no bacteriostatic activity
same,bacteriostatic effect compared with methenamine 0.1 mg/ml,"[12]; methenamine 0.2 mg/ml (FIGS. 8, 9)",consistently exerted a greater bacteriostatic effect than did methenamine 0.1 mg/ml
same,bacteriostasis,"[12]; methenamine 0.2 mg/ml, acidic urine (Experiments E and F)",bacteriostasis
same,release of formaldehyde,[13]; pH 5.0,excellent release of formaldehyde
same,release of formaldehyde,[13]; pH 5.5,good release of formaldehyde
same,release of formaldehyde,[13]; pH 6.0,generally adequate for the treatment of most urinary tract infections
same,conversion and release of formaldehyde,[13]; pH of the urine 6.5,insufficient conversion and release of formaldehyde
same,effectiveness at alkaline pH,"[10]; methenamine alone, typical anti-bacterial dosage, alkaline pH",not effective at an alkaline pH
same,anti-bacterial effect of the methenamine,[10]; pH of the urine reaches 6.5,totally diminished
same,colony count by the end of the second time period and throughout,[9]; methenamine 0.9 mg/ml,greater than 10^7 per milliliter
same,"number of bacteria, first six hours",[9]; methenamine 0.9 mg/ml,fell slightly during the first six hours
same,pH at the end of each four to eight hour period,[9]; methenamine 0.9 mg/ml,exceeded 8.5
CCC(=O)NO [propionohydroxamic acid],urease inhibiting effect,[2],appear to possess the greatest urease inhibiting effect
